Results as given in patent publication US20220087987A1, “A METHOD FOR TREATING SWI/SNF COMPLEX-DEFICIENT CANCERS COMPRISING GLUTATHIONE (GSH) METABOLIC PATHWAY INHIBITOR” (National Cancer Center, priority 2018, published 2022).

Columns and labels:
[1] = tested on: TrxR (TrxR1, TrxR2 and TrxR3); assay: Detection of TrxR activity; type: cell-based, human; details: 24 hrs
Experimental: TrxR activity including TrxR1, TrxR2 and TrxR3 was measured using the Thioredoxin Reductase Assay Kit (Abcam). Cells were trypsinized, counted, reseeded at the specified density in 10 cm dishes and exposed to the indicated concentrations of APR-246. After 24 hrs, cells were washed with cold PBS and lysed with buffer containing a proteinase inhibitor. After centrifugation, the supernatant was supplemented with a TrxR inhibitor and incubated for 20 min at 25° C. Absorbance was measured using an Envision Multi-label plate reader (PerkinElmer). Relative TrxR ratios were normalized against untreated samples.

[2] = tested on: uterine cancer cell lines; assay: Cell viability of uterine cancer cell lines; type: cell-based, human; details: treatment for 6 days
Experimental: Cell viability was examined by measuring the cellular ATP level using the CellTiter-Glo Luminescent Cell Viability Assay (Promega). To measure cell viability after siRNA-mediated knockdown, cell lines were transfected with siRNAs (25 nM) using Lipofectamine RNAiMAX. After 48 hrs, cells were trypsinized and repeatedly transfected with siRNAs (25 nM) using Lipofectamine RNAiMAX. Cells were trypsinized after a further 48 hrs, counted, and reseeded at the specified density in 96-well plates. To measure cell viability after drug treatment, cells were trypsinized, counted, reseeded at the specified density in 96-well plates, and exposed to the indicated concentrations of drugs. Cell viability was measured using the CellTiter-Glo Luminescent Cell Viability Assay. Luminescence was measured using an Envision Multi-label plate reader (PerkinElmer).

[3] = tested on: ARID1A-deficient TOV21G OCCC xenografts; assay: Mouse xenograft model, TOV21G; type: in vivo, mice; details: APR-246 50 mg/kg
Experimental: All mouse experiments were approved by the National Cancer Center (NCC) animal Ethical Committee. Cells were counted and re-suspended in a 1:1 mixture of 100 μl culture medium and 100 μl Matrigel (BD Biosciences) on ice. […] In the subcutaneous model, once the tumors were palpable (about 3-14 days after implantation), mice were randomly divided into two groups. […] In the doxycycline (Dox) treatment study, TOV21G-shNT cells and TOV21G-shGCLC cells were injected into the flanks of 6-week-old female BALB/c-nu/nu mice. […] In other experiments, TOV21G-shNT cells and TOV21G-shGCLC cells were treated with Dox (0.5 μg/ml) for 4 days and then injected into the flank of 6-week-old female BALB/c-nu/nu mice. […] Tumor growth was measured every several days using calipers. The volume of implanted tumors was calculated using the formula V=L×W2/2, where V is volume (mm^3), L is the largest diameter (mm), and W is the smallest diameter (mm). At the end of the experiment, mice were sacrificed in accordance with standard protocols.
GSH was detected using the GSH-Glo Assay (Promega). Tumor samples derived from xenografts were weighed and washed with PBS. The tumor samples were mixed with 50 μl of PBS and homogenized using a Mini Cordless Grinder (Funakoshi). PBS (950 μl) was added to homogenized tumor samples and centrifuged at 4° C. for 10 min at 15,000 rpm. Tumor extract and 2×GSH-Glo Reagent (25 μl of each) were mixed in white 96-well plates (Greiner) and incubated for 30 min at room temperature. Luciferin Detection Reagent (50 μl) was added and the samples were incubated for 15 min at room temperature. Luminescence was measured using an Envision Multi-label plate reader (PerkinElmer). GSH signal intensities per 1 mg of tumor sample were calculated.
Formalin-fixed, paraffin-embedded ovarian cancer clinical specimens and TOV21G xenografts were deparaffinized and representative whole 4-μm-thick sections were analyzed by IHC. […] The samples were removed from the freezer and equilibrated at −20° C. for approximately 15 minutes before sectioning. Tissue sections (6 μm thick) were placed on positively charged slides, dried, and fixed for 15 minutes at room temperature in 3% formaldehyde, followed by 5 minutes in methanol at −20° C. After fixation, representative sections were analyzed by IHC. […] All IHC staining was performed using a Dako autostainer Link48 (Dako).
First, membrane staining intensity (0, 1+, 2+, or 3+) was determined for each cell in a fixed field. The H-score was assigned using the following formula: [1×(% cells 1+)+2×(% cells 2+)+3×(% cells 3+)]. The final score, ranging from 0 to 300, gives more relative weight to higher-intensity membrane staining in a given tumor sample. The percentage of NOXA-, cleaved caspase-3-, cleaved PARP- and Ki67-positive cells (of the total number of cells) in each slide were counted.

[4] = tested on: ARID1A-proficient and ARID1A-deficient cancer cell lines; assay: Cell viability and colony formation in cancer cell line panel; type: cell-based, human; details: four ARID1A-proficient and six ARID1A-deficient cell lines; cell viability, colony formation
GSH = assay: Detection of GSH in cells (GSH/GSSG-Glo, GSH-Glo); type: cell-based, human

COCC1(CO)C(=O)C2CCN1CC2 (stereo not drawn) [APR-246]
TrxR activity ([1]; ARID1A-WT or ARID1A-KO HCT116 cells, same concentrations as decrease GSH): did not affect TrxR activity
TrxR activity at a higher concentration ([1]; HCT116 cells, 50 μM): suppressed TrxR activity
IC50 values in ARID1A-deficient versus ARID1A-proficient uterine cancer cell lines [2]: markedly lower in three ARID1A-deficient cell lines than in two ARID1A-proficient cell lines
GSH level in xenograft cells [3]: decreased
apoptotic markers NOXA, cleaved PARP, cleaved caspase-3 and proliferation marker Ki67 (IHC) [3]: markedly increased expression of the apoptotic markers NOXA, cleaved PARP, and cleaved caspase-3, and decreased expression of the cell proliferation marker Ki67
oxidative stress marker 8-OHdG (IHC, H-score) [3]: increased the level of the oxidative stress marker 8-hydroxy-2′-deoxyguanosine (8-OHdG) markedly
tumor weight ([3]; BSO 750 mg/kg): reduced
body weight of mice ([3]; BSO 750 mg/kg once a day): did not cause significant loss of body weight
growth of xenografts (tumor volume) ([3]; intraperitoneally once daily 12-14 days, BSO 750 mg/kg): significantly suppressed the growth
sensitivity of ARID1A-deficient versus ARID1A-proficient cancer cells [4]: more sensitive to APR-246 than ARID1A-proficient cancer cells
GSH level (GSH/GSSG) in SWI/SNF complexes-deficient cancer cells (GSH; 40 μM APR-246, 24 hrs): decreased in the GSH level
GSH levels (GSH/GSSG) in gastric cancer PDCs (GSH; 40 or 50 μM APR-246, 1.25 μM erastin, 24 hrs): markedly decreased GSH levels in ARID1A-deficient PDCs and not in ARID1A-proficient PDCs
GSH level (ratio of reduced GSH to GSSG) (GSH; ARID1A-KO HCT116 cells, but not ARID1A-WT cells, 24 hrs): dose-dependently decreased the GSH level
GSH levels in ovarian PDCs (GSH; ARID1A-deficient PDCs, 50 μM, 24 hrs): decreased the GSH levels
GSH level in cancer cell lines (GSH; ARID1A-deficient versus ARID1A-proficient ovarian and other cancer cells): decreased GSH level
